Assay results as given in ChEMBL document CHEMBL1201862, “PubChem BioAssay data set” (2004).
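All cell lines were grown in 96-well plates and treated with compound for 48 hours. At the GI50, growth is halved.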 Activity calls are given as the source filed them. Rule as the data show it: active = GI50 up to about 1.1 µM and inactive = higher.

Experiments:
Test in all cases: NCI-60 cell line screen, 48 h
[1] = tested on: K562
[2] = tested on: HCC 2998
[3] = tested on: SF-268
[4] = tested on: EKVX
[5] = tested on: NCI-H522
[6] = tested on: DU-145
[7] = tested on: U-251
[8] = tested on: UACC-257
[9] = tested on: UO-31
[10] = tested on: M14
[11] = tested on: MCF7
[12] = tested on: A498
[13] = tested on: HL-60
[14] = tested on: 786-0
[15] = tested on: NCI/ADR-RES
[16] = tested on: MDA-MB-435
[17] = tested on: Hs-578T
[18] = tested on: SR
[19] = tested on: MDA-N

Compound	GI50 [1]	GI50 [2]	GI50 [3]	GI50 [4]	GI50 [5]	GI50 [6]	GI50 [7]	GI50 [8]	GI50 [9]	GI50 [10]	GI50 [11]	GI50 [12]	GI50 [13]	GI50 [14]	GI50 [15]	GI50 [16]	GI50 [17]	GI50 [18]	GI50 [19]
CC1(C)C2CCC1(CC(=O)O)C(Cl)C2 (stereo not given)	> 100 µM (inactive)	> 100 µM (inactive)	> 100 µM (inactive)	> 100 µM (inactive)	> 100 µM (inactive)	> 100 µM (inactive)	> 100 µM (inactive)	> 100 µM (inactive)	> 100 µM (inactive)	> 100 µM (inactive)	> 100 µM (inactive)	> 100 µM (inactive)	> 100 µM (inactive)	> 100 µM (inactive)	> 100 µM (inactive)	> 100 µM (inactive)	> 100 µM (inactive)		
CCOP(=O)(OCC)/C(C#N)=C/c1cccn1CC(C)C	39.9 µM (inactive)	> 100 µM (inactive)	> 100 µM (inactive)	> 100 µM (inactive)	81.8 µM (inactive)	> 100 µM (inactive)	> 100 µM (inactive)	> 100 µM (inactive)	61.4 µM (inactive)	> 100 µM (inactive)	> 100 µM (inactive)	> 100 µM (inactive)		> 100 µM (inactive)	> 100 µM (inactive)	> 100 µM (inactive)		> 100 µM (inactive)	> 100 µM (inactive)
O=C(/C=C/c1cccs1)c1ccsc1	17.5 µM (inactive)	17.4 µM (inactive)	45.1 µM (inactive)	31.1 µM (inactive)		50.2 µM (inactive)	> 10 µM (inactive)	23 µM (inactive)	17.6 µM (inactive)	39.2 µM (inactive)	10.4 µM (inactive)	38.7 µM (inactive)	15.5 µM (inactive)	28.8 µM (inactive)	35.2 µM (inactive)	21.8 µM (inactive)		16.6 µM (inactive)	18.9 µM (inactive)
[N-]=[N+]=CC(=O)OC1CCc2ccccc21 (stereo not given)	> 100 µM (inactive)	> 100 µM (inactive)	> 100 µM (inactive)	> 100 µM (inactive)	> 100 µM (inactive)	12.8 µM (inactive)	> 100 µM (inactive)	> 100 µM (inactive)	13.7 µM (inactive)		71.1 µM (inactive)	> 100 µM (inactive)	42.3 µM (inactive)	61.9 µM (inactive)		> 100 µM (inactive)		> 100 µM (inactive)	> 100 µM (inactive)
CC1=C2[C@@H](c3ccccc3)C3C=CC2(c2ccccc23)N(C(=O)Nc2cccc3ccccc23)C1=O (stereo not given in full)	> 100 µM (inactive)	> 100 µM (inactive)	> 100 µM (inactive)	> 100 µM (inactive)			> 100 µM (inactive)	> 100 µM (inactive)	> 100 µM (inactive)	> 100 µM (inactive)		> 100 µM (inactive)	> 100 µM (inactive)	> 100 µM (inactive)				> 100 µM (inactive)	
O=CC12c3ccccc3C(c3ccccc31)C1C(=O)NC(=O)C12 (stereo not given)	66.8 µM (inactive)	> 100 µM (inactive)	> 100 µM (inactive)	> 100 µM (inactive)	53 µM (inactive)	> 100 µM (inactive)	> 100 µM (inactive)	> 100 µM (inactive)	44.7 µM (inactive)	> 100 µM (inactive)	0.953 µM (active)	10.8 µM (inactive)	> 100 µM (inactive)	> 100 µM (inactive)	> 100 µM (inactive)	> 100 µM (inactive)		> 100 µM (inactive)	
CO[C@@H](C(=O)OC1C=CC2(CC1)C(=O)N(C)c1ccccc12)c1ccccc1 (stereo not given in full)	20 µM (inactive)	> 100 µM (inactive)		57 µM (inactive)		> 100 µM (inactive)	> 100 µM (inactive)	65.3 µM (inactive)	> 100 µM (inactive)	72.6 µM (inactive)	50.8 µM (inactive)	> 100 µM (inactive)	20.9 µM (inactive)	> 100 µM (inactive)	45.1 µM (inactive)	94.8 µM (inactive)		42.1 µM (inactive)	> 100 µM (inactive)
CCOC(=O)[C@H]1C[C@@H](C(=O)c2ccccc2)N2N=C(c3ccc(Br)cc3)C=C[C@H]12	> 100 µM (inactive)	> 100 µM (inactive)	> 100 µM (inactive)			> 100 µM (inactive)	> 100 µM (inactive)	> 100 µM (inactive)	> 100 µM (inactive)	> 100 µM (inactive)	> 100 µM (inactive)	> 100 µM (inactive)		> 100 µM (inactive)	> 100 µM (inactive)	> 100 µM (inactive)	> 100 µM (inactive)	9.48 µM (inactive)	
CC(=O)c1cn(-c2ccc(Cl)cc2)c(=O)c2c(N)n[nH]c12	22.3 µM (inactive)	> 100 µM (inactive)	> 100 µM (inactive)	> 100 µM (inactive)		> 100 µM (inactive)	> 100 µM (inactive)	> 100 µM (inactive)	> 100 µM (inactive)			> 100 µM (inactive)	> 100 µM (inactive)	> 100 µM (inactive)	> 100 µM (inactive)	> 100 µM (inactive)	> 100 µM (inactive)	> 100 µM (inactive)	
COC(=O)c1ccccc1Nc1nc(-c2cccs2)nc2cc(OC)c(OC)cc12	> 100 µM (inactive)		46.3 µM (inactive)	37.9 µM (inactive)	59.7 µM (inactive)	92.3 µM (inactive)	31.2 µM (inactive)	70.8 µM (inactive)	> 100 µM (inactive)	> 100 µM (inactive)	72.3 µM (inactive)	> 100 µM (inactive)	> 100 µM (inactive)	38.8 µM (inactive)	57 µM (inactive)	> 100 µM (inactive)	30.3 µM (inactive)	18 µM (inactive)	
Cc1c(C(=O)OCc2ccccc2)[n+]([O-])c2cc(F)c(F)cc2[n+]1[O-]	0.264 µM (active)	1.9 µM (inactive)	1.25 µM (inactive)	3.26 µM (inactive)	2 µM (inactive)	2.41 µM (inactive)	2.3 µM (inactive)	2.19 µM (inactive)	1.79 µM (inactive)	1.77 µM (inactive)	2.31 µM (inactive)	1.42 µM (inactive)	1.06 µM (active)	4.58 µM (inactive)	3.22 µM (inactive)	2.15 µM (inactive)	0.306 µM (active)	0.877 µM (active)	
NC(=O)Cn1c(=O)[nH]c(=O)c2[nH]cnc21	> 100 µM (inactive)	> 100 µM (inactive)	> 100 µM (inactive)	> 100 µM (inactive)	> 100 µM (inactive)		> 100 µM (inactive)	> 100 µM (inactive)	> 100 µM (inactive)	> 100 µM (inactive)		> 100 µM (inactive)	> 100 µM (inactive)	> 100 µM (inactive)				> 100 µM (inactive)	
CC(C)(C)O/C=C1/C(=O)OC2C[C@@H](O[Si](C)(C)C(C)(C)C)CC12 (stereo not given in full)		> 100 µM (inactive)	80.9 µM (inactive)	> 100 µM (inactive)	27.6 µM (inactive)	29.4 µM (inactive)	48 µM (inactive)	41.5 µM (inactive)	52.2 µM (inactive)	54.6 µM (inactive)	36.1 µM (inactive)	> 100 µM (inactive)		> 100 µM (inactive)	55.1 µM (inactive)	77.6 µM (inactive)			> 100 µM (inactive)
